Target: T1, human RXFP1 (Homo sapiens, UniProt Q9HBX9)
T1 construct: expressed in transfected cells
T1 sequence (Q9HBX9 1-757): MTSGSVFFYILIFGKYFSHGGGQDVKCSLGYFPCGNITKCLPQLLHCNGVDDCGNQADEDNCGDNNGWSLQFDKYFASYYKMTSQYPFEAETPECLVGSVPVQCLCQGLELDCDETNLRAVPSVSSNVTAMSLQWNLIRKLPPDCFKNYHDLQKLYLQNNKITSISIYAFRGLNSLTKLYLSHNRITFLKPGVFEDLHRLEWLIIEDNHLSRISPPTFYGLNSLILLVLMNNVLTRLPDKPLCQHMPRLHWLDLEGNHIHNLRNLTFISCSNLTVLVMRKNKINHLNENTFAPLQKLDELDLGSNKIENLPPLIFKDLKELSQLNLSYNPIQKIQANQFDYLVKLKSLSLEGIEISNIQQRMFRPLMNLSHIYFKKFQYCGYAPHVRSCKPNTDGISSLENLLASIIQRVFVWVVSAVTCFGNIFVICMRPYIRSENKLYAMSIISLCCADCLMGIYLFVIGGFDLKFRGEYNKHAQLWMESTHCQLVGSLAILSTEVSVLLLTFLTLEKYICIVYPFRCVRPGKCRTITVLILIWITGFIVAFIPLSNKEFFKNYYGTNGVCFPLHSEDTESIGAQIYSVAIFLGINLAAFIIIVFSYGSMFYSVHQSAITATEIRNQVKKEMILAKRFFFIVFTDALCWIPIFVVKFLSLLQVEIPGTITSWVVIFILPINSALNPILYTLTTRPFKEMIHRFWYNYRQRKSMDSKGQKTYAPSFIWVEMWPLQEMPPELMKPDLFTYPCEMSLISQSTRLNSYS
Assay: hRXFP1 HEK293 cAMP assay (HTRF)
Type: cell-based
Details: HEK293 cells stably expressing human RXFP1; 30 min at rt; intracellular cAMP by HTRF
Method in brief: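 HEK293 cells stably expressing human RXFP1 treated 30 min at rt with compound (0.010 nM to 50 μM, 2% DMSO) in HBSS/HEPES buffer with 0.5 mM IBMX. Intracellular cAMP measured by HTRF (665/590 nm ratio) against a cAMP standard curve; potency fitted by 4-parameter logistic.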

Structure (SMILES) | EC50
COc1ccc(-c2cncc(NS(C)(=O)=O)c2)cc1C(=O)Nc1c(C(=O)Nc2ccc(F)c(C(F)(F)F)c2)sc2cc(C(F)(F)F)ccc12 [Example 117, N-(4-fluoro-3-(trifluoromethyl)phenyl)-3-(2-methoxy-5-(5-(methyl-sulfonamido)pyridin-3-yl)benzamido)-6-(trifluoromethyl) benzo[b] thiophene-2-carboxamide] | 0.131 µM
COc1ccc(N2CCOC(CC(C)(C)O)C2)cc1C(=O)Nc1c(C(=O)Nc2ccc(F)c(C(F)(F)F)c2)sc2cc(C(F)(F)F)ccc12 (single isomer, unassigned) [Example 228, N-(4-fluoro-3-(trifluoromethyl)phenyl)-3-(5-(2-(2-hydroxy-2-methylpropyl)morpholino)-2-methoxy-benzamido)-6-(trifluoromethyl) benzo[b] thiophene-2-carboxamide] | 1.54 µM
COc1ccc(C2CCCC(C)(O)C2)cc1C(=O)Nc1c(C(=O)Nc2ccc(F)c(C(F)(F)F)c2)sc2cc(C(F)(F)F)ccc12 (single isomer, unassigned) [Example 36, N-(4-fluoro-3-(trifluoromethyl)phenyl)-3-(5-(3-hydroxy-3-methylcyclohexyl)-2-methoxybenzamido)-6-(trifluoromethyl)benzo[b]thiophene-2-carboxamide] | 0.244 µM
COc1ccc(C2CCCC(NC3COC3)C2)cc1C(=O)Nc1c(C(=O)Nc2ccc(F)c(C(F)(F)F)c2)sc2cc(C(F)(F)F)ccc12 (single isomer, unassigned) [Example 62, N-(4-fluoro-3-(trifluoromethyl)phenyl)-3-(2-methoxy-5-(3-(oxetan-3-ylamino)cyclohexyl)benzamido)-6-(trifluoromethyl) benzo[b] thiophene-2-carboxamide] | 1.46 µM
COc1ccc(C2=NOC3CN(C(=O)CO)CC23)cc1C(=O)Nc1c(C(=O)Nc2ccc(F)c(C(F)(F)F)c2)sc2cc(C(F)(F)F)ccc12 (single isomer, unassigned) [Example 242, N-(4-fluoro-3-(trifluoromethyl)phenyl)-3-(5-(5-(2-hydroxyacetyl)-3a,5,6,6a-tetrahydro-4H-pyrrolo[3,4-d]isoxazol-3-yl)-2-methoxy-benzamido)-6-(trifluoromethyl) benzo[b] thiophene-2-carboxamide] | 0.0098 µM
COc1ccc(C2=NOC3(CCN(C(=O)C(C)(C)O)C3)C2)cc1C(=O)Nc1c(C(=O)Nc2ccc(F)c(C(F)(F)F)c2)sc2cc(C(F)(F)F)ccc12 (stereo not drawn) [Example 279, N-[4-fluoro-3-(trifluoromethyl)phenyl]-3-{5-[7-(2-hydroxy-2-methylpropanoyl)-1-oxa-2,7-diazaspiro[4.4]non-2-en-3-yl]-2-methoxy-benzamido}-6-(trifluoromethyl)-1-benzothiophene-2-carboxamide] | 0.582 µM

The remaining compounds from weak to strong by EC50, led by results:

EC50 | Structure (SMILES)
1.63 µM | COc1ccc(C2CC2C(=O)NCC(C)(C)O)cc1C(=O)Nc1c(C(=O)Nc2ccc(F)c(C(F)(F)F)c2)sc2cc(C(F)(F)F)ccc12 (stereo not drawn) [Example 166, N-[4-fluoro-3-(trifluoromethyl)phenyl]-3-(5-{2-[(2-hydroxy-2-methylpropyl)carbamoyl]cyclopropyl}-2-methoxy-benzamido)-6-(trifluoromethyl)-1-benzothiophene-2-carboxamide]
0.608 µM | COc1ccc(C2CCCN(CC(N)=O)C2)cc1C(=O)Nc1c(C(=O)Nc2ccc(F)c(C(F)(F)F)c2)sc2cc(C(F)(F)F)ccc12 (stereo not drawn) [Example 83, 3-(5-(1-(2-amino-2-oxoethyl)piperidin-3-yl)-2-methoxy-benzamido)-N-(4-fluoro-3-(trifluoromethyl)phenyl)-6-(trifluoromethyl) benzo[b] thiophene-2-carboxamide]
0.4 µM | COc1ccc(C2CCN(C(=O)CO)C2)cc1C(=O)Nc1c(C(=O)Nc2ccc(F)c(C(F)(F)F)c2)sc2cc(C(F)(F)F)ccc12 (stereo not drawn) [Example 141, N-(4-fluoro-3-(trifluoromethyl)phenyl)-3-(5-(1-(2-hydroxyacetyl)pyrrolidin-3-yl)-2-methoxy-benzamido)-6-(trifluoromethyl) benzo[b] thiophene-2-carboxamide]

From patent US20260265233A1, “BENZOTHIOPHENE DERIVATIVES AS RXFP1 AGONISTS” (BRISTOL-MYERS SQUIBB COMPANY, priority 2021, published 2026)
